Assay results from patent US10233202B2, “Tenofovir monobenzyl ester phosphamide prodrug, preparation method and use thereof” (JIANGSU TASLY DIYI PHARMACEUTICAL CO., LTD., priority 2015, dated 2019).
Where two headings read alike, the source gives them in different places. Each block holds one compound with its values, some of them ahead of it.

How the values were obtained:
[1] = tested on: HBV; test: Cell based anti-HBV activity test, HBV DNA in HepG2.2.15 cell supernatant by qPCR; conditions: read-out: EC50
Experimental: (§1) 8.1. Dilution of the compounds: the initial concentration of each compound in the in vitro anti-HBV activity test was 1 μM, with 3-fold serial dilution to 8 concentrations; the initial concentration of each compound in the cytotoxicity test was 100 μM, with 3-fold serial dilution to 8 concentrations; DMSO was used for the dilution of the compound mother liquor. The initial concentrations of the reference compound TDF for the anti-HBV activity test in vitro and the cytotoxicity test were all set at 0.2 μM, with 3-fold serial dilution to 8 concentrations.
8.2. Anti-HBV activity test in vitro: the HepG2.2.15 cells were plated in the 96-well plate (4×10^4 cells/well), and cultured overnight at 37° C. in 5% CO2. On second day, fresh culture solutions containing compounds of different concentrations were added to the culture wells. See Table 2 for the compound distribution. On 5th day, the used culture solutions in the culture wells were sucked and discarded, and fresh culture solutions containing compounds of different concentrations were added. On 8th day, the supernatant in the culture wells was collected for the extraction of HBV DNA in the supernatant. qPCR test was used to detect the concentration of HBV DNA content in the HepG2.2.15 supernatant.
8.4. Data analysis and calculation of the inhibition percentage and relative cell viability: The inhibition percentage was calculated using the following formula: % Inh.=[(HBV quantity of DMSO control−HBV quantity of sample)/HBV quantity of DMSO control]×100%
9.1 Drugs: the dilution method and concentrations of compound 3, the reference compound (CN201380030061.6, and the compound shown in claim 36 (abbreviation: compound 7), and the isomer thereof) were the same as those in example 1.
(§2) 9.2 Test method: the test was carried out according to the procedure in example 1.

[2] = in vitro; type: cell-based; conditions: human, HepG2.2.15 cells
Experimental: The concentration of HBV DNA in the HepG2.2.15 cell supernatant was detected through the real-time fluorescence quantitative PCR (qPCR) method to determine the anti-HBV activity of the compound in the HepG2.2.15 cells, and the effect of the testing compounds to the HepG2.2.15 cell activity was detected through Cell-titer Blue.
as §1
8.3. Treatment of the cells in the cell viability test: the HepG2.2.15 cells were plated in the 96-well plate (4×10^4 cells/well), and cultured overnight at 37° C. in 5% CO2. On 2nd day, fresh culture solutions containing compounds of different concentrations were added to the culture wells. See Table 3 for the compound distribution. On 5th day, the used culture solutions in the culture wells were sucked and discarded, and fresh culture solutions containing compounds of different concentrations were added. On 8th day, Cell-titer Blue agent was added to each well, and the microplate reader was used to detect the fluorescence value of each well.
The cell viability percentage was calculated using the following formula: % cell viability=(fluorescence of sample−fluorescence of medium control)/(fluorescence of DMSO control−fluorescence of medium control)[…] 100%
as §2

[3] = Stability in the human liver S9; type: in vitro ADME; conditions: for CLlint(s9) / half-life at 1 μM / Remaining (T = 60 min): human liver S9, 1 μM
Experimental: (§3) The following stability test were carried out according to the prior art, and the data of the stability test shown in the table were the residue percentages after the test compounds were incubated for different period of time under the test condition.

[4] = Stability in the simulated intestinal fluid; type: in vitro ADME; conditions: 10 μM
Experimental: as §3

[5] = in vivo; parameters: species or system ICR mice; conditions: mouse, 50 mg/kg
Experimental: 12 ICR mice (male, body weight 30±5 g, purchased from the Vital River animal center) were randomly divided into 4 groups, 3 for each group, fasted for 12 h before drug administration, with freely drinking during the fasting. […] The dose of the Tenofovir prodrug was 50 mg/kg, and the administration quantity was 10 mL/kg. The sample collection protocols: after administration by gastric gavage, each 0.5 mL of blood was taken from the orbit at 15 min, 30 min, 1 h, and 3 h; the mice were sacrificed, and the liver tissues were taken, washed cleanly, and weighed; normal saline was added to the liver with a proportion of 1:1, homogenized, and stored in the refrigerator at −40° C. for test. Treatment method for the plasma samples: 100 μL of the mouse plasma was taken and placed in a 1.5 mL plastic EP tube, 100 μL solution of internal standard (200 ng/ml theophylline) solution was added, 600 μL acetonitrile was added, vortex shaking for 2 min, centrifuged for 3 min (12500 rpm), the supernatant was taken, purged with nitrogen to dryness, and dissolved again with 100 μL of mobile phase (water:methanol=95:5), and the injection volume was 10 μL. Treatment method for the tissue samples: 200 μL of the mouse tissue samples were taken and placed in a 1.5 mL plastic EP tube, 100 μL solution of internal standard (200 ng/ml theophylline) solution was added, 600 μL acetonitrile was added, vortex shaking for 2 min, centrifuged for 3 min (12500 rpm), the supernatant was taken, purged with nitrogen to dryness, and dissolved again with 100 μL of mobile phase (water:methanol=95:5), and the injection volume was 20μL.

[6] = tested on: HIV-1 IIIB; test: In vitro anti-HIV activity test in MT-4 cells infected with HIV-1 IIIB (CellTiter Glo); type: cell-based; conditions: Human immunodeficiency virus 1, MT4, 120 h; MT-4 cells infected with HIV-1 IIIB, 5 days; read-out: EC50
Experimental: 9.1. Dilution and concentrations of the compounds and the reference compound (CN01813161GS-7340, TDF) were the same as those in example 1.
9.2. In vitro anti-HIV activity test: after MT-4 cells were infected with 24 TCID50HIV-1 IIIB/1×10^5 cells (2.4 TCID50/well) at 37° C. for 1 hour, they were plated in the 96-well plate containing the compounds of different concentrations ([…]) and cultured at 37° C. in 5% CO2 for 5 days. CellTiter Glo was used to determine the activity to calculate the EC50 value.
(§4) 9.4. Data analysis and calculation of the inhibition percentage: the activity percentage was calculated using the following formula: Activity (%) =(Raw datacpd−AverageVC)/(AverageCC−AverageVC)*100Cell Viability (%)=Raw datacpd/AverageCC*100

[7] = Cell viability test in MT-4 cells (CellTiter Glo); type: cell-based; conditions: human
Experimental: 9.3. Treatment of the cells in the cell viability test: parallel tests were carried out using the same method as that in 9.2, except that the 96-well plate containing the compounds of different concentrations were replaced with the blank 96-well plate, and CellTiter Glo was used to determine the cell viability to calculate the CC50 value.
as §4

[8] = Stability in the simulated gastric fluid; type: in vitro ADME
Experimental: as §3

[9] = Stability in the human blood; type: in vitro ADME; conditions: 2 μM
Experimental: as §3

[10] = target: hERG K-channel (Homo sapiens, UniProt Q12809); test: hERG manual whole-cell patch clamp in CHO cells (cardiotoxicity study); conditions: IC50, hERG current, room temperature
Sequence of hERG K-channel (Q12809 whole entry): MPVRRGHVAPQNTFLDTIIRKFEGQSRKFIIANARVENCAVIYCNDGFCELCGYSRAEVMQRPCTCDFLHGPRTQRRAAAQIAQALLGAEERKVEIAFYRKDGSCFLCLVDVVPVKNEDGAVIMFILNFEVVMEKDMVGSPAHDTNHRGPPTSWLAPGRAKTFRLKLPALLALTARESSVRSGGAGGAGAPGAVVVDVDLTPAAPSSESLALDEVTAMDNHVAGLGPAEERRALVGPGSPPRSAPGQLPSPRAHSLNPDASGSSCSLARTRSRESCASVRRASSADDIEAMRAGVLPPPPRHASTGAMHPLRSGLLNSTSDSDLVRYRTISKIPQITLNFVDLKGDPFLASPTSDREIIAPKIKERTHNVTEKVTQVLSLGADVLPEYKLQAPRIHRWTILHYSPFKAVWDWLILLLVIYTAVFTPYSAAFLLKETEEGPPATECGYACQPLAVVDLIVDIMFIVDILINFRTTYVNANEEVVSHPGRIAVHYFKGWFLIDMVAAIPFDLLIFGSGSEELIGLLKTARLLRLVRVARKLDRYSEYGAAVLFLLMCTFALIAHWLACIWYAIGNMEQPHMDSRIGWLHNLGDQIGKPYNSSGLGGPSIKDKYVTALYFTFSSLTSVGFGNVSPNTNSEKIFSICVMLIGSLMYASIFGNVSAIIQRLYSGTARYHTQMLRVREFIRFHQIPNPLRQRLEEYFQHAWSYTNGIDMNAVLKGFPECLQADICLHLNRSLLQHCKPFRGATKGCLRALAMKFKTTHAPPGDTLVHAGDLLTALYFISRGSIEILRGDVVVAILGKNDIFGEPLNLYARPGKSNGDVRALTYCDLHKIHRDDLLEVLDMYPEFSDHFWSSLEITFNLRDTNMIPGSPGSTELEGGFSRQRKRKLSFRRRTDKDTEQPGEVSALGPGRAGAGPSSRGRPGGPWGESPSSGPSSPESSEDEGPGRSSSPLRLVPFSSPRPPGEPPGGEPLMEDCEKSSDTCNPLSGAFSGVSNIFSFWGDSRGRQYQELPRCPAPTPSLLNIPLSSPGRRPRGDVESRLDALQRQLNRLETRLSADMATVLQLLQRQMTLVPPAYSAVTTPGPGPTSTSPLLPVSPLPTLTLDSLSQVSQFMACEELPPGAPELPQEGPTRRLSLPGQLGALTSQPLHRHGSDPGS
Experimental: The CHO cells obtained from AVivaBiosciences that could stably express the hERG K-channel were used in the test, and the cells were incubated at 37° C. in 5% CO2 and under constant humidity.
The final concentration of DMSO in the extracellular fluid was not higher than 0.30%.
The whole-cell patch clamp technique was used on the Multiclamp patch-clamp amplifier to test the compound at room temperature, the output signal was digitalized using the DIgiDAta 1440 A/D-D/A plate, and the Pclamp10 software was used for the control of the recording. The minimum sealing resistance was set at 500 MOh/ms, and the minimum specific hERG current was set at 0.4 nA for quality control.
Clampfit (V10.2, Molecular Devices), Excel 2003 and GraphPad Prism 5.0 were used for the data analysis. The calculation formula of the current: I/Icontrol=Bottom+(Top−Bottom)/(1+10^((LogIC50−Log C)*Hillslope

[11] = Hepatitis B virus, HepG2.2.15, HepG2.2.15 cells, HBV DNA in supernatant on 8th day, Table 3
[12] = Cell-titer Blue on 8th day, Table 3
[13] = HepG2.2.15 cells, HBV DNA in supernatant on 8th day, Table 3
[14] = Hepatitis B virus, HepG2.2.15, HepG2.2.15 cells, comparative test, Table 4

Compound: CC(C)OC(=O)CN[P@@](=O)(CO[C@H](C)Cn1cnc2c(N)ncnc21)OCc1ccccc1 (single isomer, unassigned) [Compound 1a]
EC50 [1, 11]: > 1 µM
CC50 [2, 12]: > 100 µM

Compound: CC(C)OC(=O)CN[P@](=O)(CO[C@H](C)Cn1cnc2c(N)ncnc21)OCc1ccccc1 (single isomer, unassigned) [Compound 1b]
EC50 [1, 13]: 0.29 µM
EC50 [1, 11]: 0.2 to 1 µM
CC50 [2, 12]: > 100 µM

Compound: C[C@H](Cn1cnc2c(N)ncnc21)OC[P@](=O)(NCC(=O)OCc1ccccc1)OCc1ccccc1 (single isomer, unassigned) [Compound 5a]
EC50 [1, 13]: 0.214 µM
EC50 [1, 11]: 0.2 to 1 µM
CC50 [2, 12]: > 100 µM

Compound: C[C@H](Cn1cnc2c(N)ncnc21)OC[P@@](=O)(NCC(=O)OCc1ccccc1)OCc1ccccc1 (single isomer, unassigned) [Compound 5b]
CC50 [2, 12]: > 100 µM

CLlint(s9) [3]: 8.4 µL/min/mg
half-life at 1 μM [3]: 82.2 min
Remaining (T = 60 min) [3]: 60%
CLlint(s9) ([3]; scaled per kg): 0.0297 mL/min/kg
Compound: CCOc1ccc2ccc(=O)oc2c1 [7-Ethoxycumarin]

Compound: O=c1ccc2ccc(O)cc2o1 [7-Hydroxycoumarin]
Remaining (T = 60 min) [3]: 4%
half-life ([3]; human, s9): 6.6 min

Compound: O=C(O)CCCc1ccc(N(CCCl)CCCl)cc1 [Chlorambucil]
% 0 min (residue percentage) [4]: 100%
% 60 min (residue percentage) [4]: 29.36%
% 120 min (residue percentage) [4]: 3.11%
% 360 min (residue percentage) [4]: 0.00%
% 1440 min (residue percentage) [4]: 0.00%

Compound: COC(=O)CN[P@@](=O)(CO[C@H](C)Cn1cnc2c(N)ncnc21)OCc1ccccc1 [Compound 2a]
CC50 [2, 12]: > 100 µM

Compound: COC(=O)CN[P@](=O)(CO[C@H](C)Cn1cnc2c(N)ncnc21)OCc1ccccc1 [Compound 2b]
EC50 [1, 11]: > 1 µM
CC50 [2, 12]: > 100 µM

concentration at 3 h ([5]; male, ICR, Cliver tissue): 375 nM
concentration at 3 h ([5]; male, ICR, Cplasma): 104 nM
Compound: CC(C)OC(=O)[C@H](C)NP(=O)(CO[C@H](C)Cn1cnc2c(N)ncnc21)OCc1ccccc1 (some centres unmarked) [Compound 3]
selectivity ratio at 3 h ([5]; male, ICR): 3.61

Compound: Cc1ccccc1CO[P@](=O)(CO[C@H](C)Cn1cnc2c(N)ncnc21)N[C@@H](C)C(=O)OC(C)C [Compound 7a]
EC50 [1, 14]: > 1 µM
CC50 ([2]; comparative test, Table 4): > 100 µM

Compound: Cc1ccccc1CO[P@@](=O)(CO[C@H](C)Cn1cnc2c(N)ncnc21)N[C@@H](C)C(=O)OC(C)C [Compound 7b]
EC50 [1, 14]: 0.275 µM
CC50 ([2]; comparative test, Table 4): > 100 µM
EC50 [6]: 0.0837 µM
CC50 at 5 days [7]: 14.7 µM
% 0 min (residue percentage) ([8]; 10 μM): 100%
% 60 min (residue percentage) ([8]; 10 μM): 82.76%
% 120 min (residue percentage) ([8]; 10 μM): 51.39%
% 360 min (residue percentage) ([8]; 10 μM): 13.16%
% 1440 min (residue percentage) ([8]; 10 μM): 0.00%
% 0 min (residue percentage) [4]: 100%
% 60 min (residue percentage) [4]: 31.28%
% 120 min (residue percentage) [4]: 8.33%
% 360 min (residue percentage) [4]: 0.09%
% 1440 min (residue percentage) [4]: 0.00%
% 0 min (residue percentage) [9]: 100%
% 10 min (residue percentage) [9]: 93.5%
% 30 min (residue percentage) [9]: 91.6%
% 60 min (residue percentage) [9]: 90.5%
% 120 min (residue percentage) [9]: 90.1%
CLlint(s9) [3]: 147.4 µL/min/mg
half-life at 1 μM [3]: 4.7 min
Remaining (T = 60 min) [3]: 5%
CLlint(s9) ([3]; scaled per kg): 0.519 mL/min/kg
IC50 [10]: > 10 µM

% 0 min (residue percentage) [9]: 100%
% 10 min (residue percentage) [9]: 54.4%
% 30 min (residue percentage) [9]: 37.0%
% 60 min (residue percentage) [9]: 24.4%
% 120 min (residue percentage) [9]: 10.2%
Compound: CC1CC(OC(=O)C(O)c2ccccc2)CC(C)(C)N1C (centres unmarked) [Eucatropine]

% 0 min (residue percentage) ([8]; 20 μM): 100%
% 60 min (residue percentage) ([8]; 20 μM): 24.34%
% 120 min (residue percentage) ([8]; 20 μM): 9.41%
% 360 min (residue percentage) ([8]; 20 μM): 1.58%
% 1440 min (residue percentage) ([8]; 20 μM): 0.31%
Compound: COc1ccc2[nH]c([S+]([O-])Cc3ncc(C)c(OC)c3C)nc2c1 (centres unmarked) [Omeprazole]

Cliver tissue [5]: 67.251 nmol/mL
Cplasma [5]: 0.075 nmol/mL
Liver tissue selectivity (Cliver tissue/Cplasma) [5]: 896
Compound: C[C@H](Cn1cnc2c(N)ncnc21)OCP(=O)(O)O [TFV, Tenofovir]
